≈ marks a conversion by molar mass, not a printed value.
Experiments:
[1] = system: MDR-MTB (Multidrug-resistant Mycobacterium tuberculosis); experiment: microbe, parasite or virus in culture; type: cell-based; conditions: 192 h, read-out: MIC (μg/mL) MDR-MTB
[2] = system: XDR-MTB (Extensively drug-resistant Mycobacterium tuberculosis); experiment: microbe, parasite or virus in culture; type: cell-based; conditions: 192 h, read-out: MIC (μg/mL) XDR-MTB

`CCOC(=O)c1cc(C(=O)c2ccc(F)cc2)n2ccc(C(=O)OC(C)C)cc12` [KNV-4, 1-Ethyl 7-isopropyl 3-(4-fluorobenzoyl)indolizine-1,7-dicarboxylate] was tested, and the MIC [1] was 4 µg/mL (≈ 10.1 µM) and the MIC [2] was 32 µg/mL (≈ 80.5 µM).
`COC(=O)c1c(C(=O)OC)c2cc(C(=O)OC(C)C)ccn2c1C(=O)c1ccc(Br)cc1` [KNV-7, 7-Isopropyl 1,2-dimethyl 3-(4-bromobenzoyl)indolizine-1,2,7-tricarboxylate] showed an MIC [1] of 8 µg/mL (≈ 15.9 µM) and an MIC [2] of 8 µg/mL (≈ 15.9 µM).

Reference: patent US11807640B1 (priority 2023, dated 2023)
